Data: patent publication US20240101548A1, “HYDROXAMATE COMPOUND, PREPARATION METHOD THEREFOR AND APPLICATION THEREOF” (SHENZHEN CHIPSCREEN BIOSCIENCES CO., LTD., priority 2020, published 2024)
Read-outs that look alike come from different tables or passages of the source.

Assays:
[1] = system: IL-10-induced JAK1/TYK2 signal pathway; test: IL-10-induced JAK1/TYK2 signal pathway STAT3-Luc reporter gene assay in U2OS cells; type: cell-based, human; conditions: U2OS cells, STAT3-Luc reporter, IL-10 10 ng/mL, read-out: Half inhibition dose (IC50) on IL-10-induced JAK1/TYK2 signal pathway
Procedure, shortened: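 U2OS cells co-transfected with IL-10R1-EGFP and STAT3-luciferase reporter plasmids; after 24 h, compound added (0–300 nM) for 6 h before 10 ng/mL human IL-10, then 24 h culture. Luciferase signal normalised to GFP for transfection efficiency; IC50 from inhibition rates.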

[2] = system: IL-2-induced JAK1/JAK3 signal pathway; test: IL-2-induced proliferation of KHYG-1 cells (JAK1/JAK3 signal); type: cell-based, human; conditions: Homo sapiens; KHYG-1 cell proliferation, IL-2 10 ng/mL, 72 hours; read-out: Inhibition activity IC50 on IL-2-induced JAK1/JAK3 signal pathway
Procedure, shortened: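 KHYG-1 NK lymphoma cells were cultured with IL-2 and test compound at various doses for 72 h at 37 °C and 5% CO2, and proliferation was read with alamarBlue fluorescence. Inhibition was normalized to wells without compound or cytokine (0%) and IL-2 wells without compound (100%), and C50 was derived from the dose-inhibition data.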

[3] = system: EPO-induced JAK2 signal pathway; test: EPO-induced proliferation of UT-7 cells (JAK2 signal); type: cell-based, human; conditions: Homo sapiens, UT7; UT-7 cell proliferation, EPO 10 ng/mL, 72 hours; read-out: Inhibition activity IC50 on EPO-induced JAK2 signal pathway
Procedure, shortened: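 UT-7 cells (15000/well) stimulated with 10 ng/mL human recombinant EPO plus compound at final 0, 100, 1000 or 10000 nM, 72 h at 37° C., 5% CO2. Proliferation by alamarBlue fluorescence (Ex530/Em590); inhibition normalised to no-cytokine/no-compound (0) and EPO-only (100) wells, […] derived from dose-inhibition.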

TYK2 JH2 domain = TYK2 JH2 domain (Homo sapiens (Human), UniProt P29597); test: TYK2 JH2 domain FRET tracer assay; type: binding; conditions: FRET 665/615 nm; read-out: Inhibition activity IC50 on TYK2 JH2 domain
Method: Compound of the present invention formulated into different concentrations (series 3 times dilutions, started from 60 μM, 11 concentrations in total) was added to 384-well plate, followed by 5 μL of enzyme (i.e., TYK2 JH2 domain), Tb antibody (Cisbio) and tracer. The mixture was incubated at 25° C. for 60 min and left at 4° C. overnight.

[4] = In-vivo pharmacokinetic test in mice; conditions: mouse, po; BALB/c female mice, gavage 10 mg/kg, plasma
Method: LC-MS/MS method is used to determine the drug concentration in the plasma of mice at different times after intragastric administration of the compound of the example. Relevant pharmacokinetic parameters are calculated to study the pharmacokinetic behavior of the compound of the present invention in mice, thereby evaluating the pharmacokinetic characteristics thereof.
Test animal was healthy adult BALB/c female mouse (provided by Chengdu Yaokang Biotechnology Co., Ltd.);
Compound administration and sample collection: compound was administered to BALB/c female mice by gavage (10 mg/kg). At 0.25, 0.5, 1, 2, 4, 6, 8, and 24 hours after administration, 60 μL of whole blood of the mouse fundus venous plexus were collected and centrifuged at 4000 rpm for 10 min to provide plasma.
Sample analysis: 10 μL of mouse plasma samples were respectively added with 290 μL of acetonitrile solution containing internal standard to precipitate proteins. After swirling for 10 min and centrifuging at 4000 rpm for 10 min, 200 μL of supernatant was added to 96-well plate, and analyzed by LC-MS/MS at an injection volume of 1 μL.

[5] = system: INF-α-induced pSTAT5 in human PBMC; test: INF-α-induced pSTAT5 in human PBMC (FACS, CD3 positive cells); type: cell-based; conditions: IFN-α 30 ng/ml, read-out: Inhibition activity IC50 on INF-α-induced pSTAT5 in human PBMC
Method: hPBMC (available from Shanghai AoNeng Biotechnology Co., Ltd.) was inoculated in 96-well plate, added with compound of the present invention (at concentrations of 40 nM and 200 nM), incubated for 60 min (compound in concentrations of 2 nM, 10 nM respectively during the incubation); added with 30 ng/ml of stimulating factor IFN-α (BioLegend) together with anti-CD3 antibody (Biolegend) and then continued to be incubated for 30 min. After the incubation, each well was added with 1 mL of fixing solution (BD Biosciences), the obtained mixture was incubated for 10 min followed by centrifugation, added with 400 μL/well of Perm III (BD Biosciences), followed by further incubation at 4° C. for 30 min. The obtained mixture was added with mouse anti-human pSTAT5 antibody (Alexa Fluor® 647 Conjugate), followed by incubation at room temperature for 40 min. Fluorescence intensity of pSTAT5 in CD3 positive cells was detected by FACS.
Inhibition rate at individual compound concentration was calculated with the following formula:
Inhibition rate=(MFI value(IFN-α-stimulated control)−MI value(2/10 nM compound treated group)/MFI value(IFN-α-stimulated control)[…]
wherein: MFI value meant fluorescence intensity value; IFN-α-stimulated control meant control group which was operated similarly to the experimental groups but no compound of the present invention was added.

TYK2 JH2 domain, sequence (P29597 589-875): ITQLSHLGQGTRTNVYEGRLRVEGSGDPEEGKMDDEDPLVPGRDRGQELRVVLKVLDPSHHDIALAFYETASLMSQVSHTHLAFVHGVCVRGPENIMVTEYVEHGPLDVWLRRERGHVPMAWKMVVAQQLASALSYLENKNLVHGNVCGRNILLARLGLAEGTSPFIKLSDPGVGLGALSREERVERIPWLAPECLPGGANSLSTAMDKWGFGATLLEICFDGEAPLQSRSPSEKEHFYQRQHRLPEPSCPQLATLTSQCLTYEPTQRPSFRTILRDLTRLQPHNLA

Compound	IC50 ([1]; Homo sapiens, U2OS)	IC50 [2]	IC50 [3]	IC50 (TYK2 JH2 domain)	AUC [4]	Cmax [4]	IC50 [1]	IC50 [5]	IC50 ([1]; Homo sapiens)
CCONC(=O)c1cnc(Nc2cc(C)nc(C)n2)cc1Nc1ccc(C2CC2)cc1N(C)S(C)(=O)=O [Example 21, 4-((4-cyclopropyl-2-(N-methylmethanesulfonamido)phenyl)amino)-6-((2,6-dimethylpyrimidin-4-yl)amino)-N-ethoxy nicotinamide]	0.421 nM	> 10000 nM	> 10000 nM	0.05 nM					
CCONC(=O)c1cnc(Nc2cc(C)nc(C)n2)cc1Nc1cccc(-c2ncc(F)cn2)c1OC [Example 208, 6-((2,6-dimethylpyrimidin-4-yl)amino)-N-ethoxy-4-((3-(5-fluoropyrimidin-2-yl)-2-methoxyphenyl)amino)nicotinamide]	0.889 nM	> 10000 nM	> 10000 nM		34.3 µM·h	16.4 µM			
CCONC(=O)c1cnc(Nc2cc(C)nc(C)n2)cc1Nc1cc(F)cc(-c2ncn(C3CC3)n2)c1OC [Example 204]	0.534 nM	> 10000 nM	> 10000 nM	0.06 nM					
CCONC(=O)c1cnc(Nc2cc(C)nc(C)n2)cc1Nc1cc(F)c(C(C)C)cc1N(C)S(C)(=O)=O [Example 229, 6-((2,6-dimethylpyrimidin-4-yl)amino)-N-ethoxy-4-((5-fluoro-4-isopropyl-2-(N-methylmethanesulfonamido)phenyl)amino)nicotinamide]	0.424 nM	> 10000 nM	> 10000 nM	0.05 nM					
CCONC(=O)c1cnc(Nc2cc(C)nc(C)n2)cc1Nc1cc(F)c(C2CC2)cc1N(C)S(C)(=O)=O [Example 98]	1.51 nM	> 10000 nM	> 10000 nM	0.09 nM					
CCONC(=O)c1cnc(Nc2cc(C)nc(C)n2)cc1Nc1ccc(OCC)cc1N(C)S(C)(=O)=O [Example 181]	0.56 nM	> 10000 nM	> 10000 nM	0.08 nM					
CCONC(=O)c1cnc(Nc2ccnc(OC)n2)cc1Nc1cc(F)c(Cl)cc1N(C)S(C)(=O)=O [Example 200, 4-((4-chloro-5-fluoro-2-(N-methylmethanesulfonamido)phenyl)amino)-N-ethoxy-6-((2-methoxypyrimidin-4-yl)amino)nicotinamide]	0.42 nM	> 10000 nM	> 10000 nM	0.06 nM					
CCONC(=O)c1cnc(Nc2ccnc(C)n2)cc1Nc1cc(F)c(C2CC2)cc1N(C)S(C)(=O)=O [Example 194, 4-((4-cyclopropyl-5-fluoro-2-(N-methylmethanesulfonamido)phenyl)amino)-N-ethoxy-6-((2-methylpyrimidin-4-yl)amino)nicotinamide]	0.6 nM	> 10000 nM	> 10000 nM	0.08 nM					
CCONC(=O)c1cnc(Nc2cc(C)nc(C)n2)cc1Nc1cc(F)cc(-c2cnc(C)cn2)c1OC [Example 214]	0.16 nM	> 10000 nM	> 10000 nM	0.09 nM	41.9 µM·h	9.21 µM			
CCONC(=O)c1cnc(Nc2cc(C)nc(C)n2)cc1Nc1cccc(-c2cnc(C)cn2)c1OC [Example 213]	0.146 nM	> 10000 nM	> 10000 nM		49.3 µM·h	18 µM			
CCONC(=O)c1cnc(Nc2cc(C)nc(C)n2)cc1Nc1ccc(Cl)cc1N(C)S(C)(=O)=O [Example 115, 4-((4-chloro-2-(N-methylmethanesulfonamido)phenyl)amino)-6-((2,6-dimethylpyrimidin-4-yl)amino)-N-ethoxy nicotinamide]	0.261 nM	> 10000 nM	> 10000 nM	0.07 nM					
CCONC(=O)c1cnc(Nc2cc(C)nc(C)n2)cc1Nc1ccc(C)nc1N(C)S(C)(=O)=O [Example 186]	0.276 nM	> 10000 nM	> 10000 nM	0.07 nM					
BMS-986165							3.03 nM	2 nM	
CCONC(=O)c1cnc(Nc2ccnc(C)n2)cc1Nc1ccc(C2CC2)cc1N(C)S(C)(=O)=O [Example 192, 4-((4-cyclopropyl-2-(N-methylmethanesulfonamido)phenyl)amino)-N-ethoxy-6-((2-methylpyrimidin-4-yl)amino)nicotinamide]	0.458 nM	> 10000 nM	> 10000 nM	0.08 nM					
CCONC(=O)c1cnc(Nc2cc(C)nc(C)n2)cc1Nc1ccc(C(C)C)cc1N(C)S(C)(=O)=O [Example 201, 6-((2,6-dimethylpyrimidin-4-yl)amino)-N-ethoxy-4-((4-isopropyl-2-(N-methylmethanesulfonamido)phenyl)amino)nicotinamide]		> 10000 nM	> 10000 nM	0.06 nM					0.541 nM
CCONC(=O)c1cnc(Nc2cc(C)nc(C)n2)cc1Nc1cc(F)c(Cl)cc1N(C)S(C)(=O)=O [Example 198, 4-((4-chloro-5-fluoro-2-(N-methylmethanesulfonamido)phenyl)amino)-6-((2,6-dimethylpyrimidin-4-yl)amino)-N-ethoxy nicotinamide]	0.65 nM	> 10000 nM	> 10000 nM	0.08 nM					
CCONC(=O)c1cnc(Nc2cc(C)nc(C)n2)cc1Nc1cc(F)cc(-c2cnccn2)c1OC [Example 258, 6-((2,6-dimethylpyrimidin-4-yl)amino)-N-ethoxy-4-((5-fluoro-2-methoxy-3-(pyrazin-2-yl)phenyl)amino)nicotinamide]	2.15 nM	> 10000 nM	> 10000 nM						
CCONC(=O)c1cnc(Nc2cc(C)nc(C)n2)cc1Nc1cc(F)c(CC)cc1N(C)S(C)(=O)=O [Example 193, 6-((2,6-dimethylpyrimidin-4-yl)amino)-N-ethoxy-4-((4-ethyl-5-fluoro-2-(N-methylmethanesulfonamido)phenyl)amino)nicotinamide]	0.647 nM	> 10000 nM	> 10000 nM	0.06 nM					
CCONC(=O)c1cnc(NC(=O)C2CC2(F)F)cc1Nc1ccc(C2CC2)cc1N(C)S(C)(=O)=O (centres unmarked) [Example 277, 4-((4-cyclopropyl-2-(N-methylmethanesulfonamido)phenyl)amino)-6-(2,2-difluorocyclopropyl-1-carboxamido)-N-ethoxy nicotinamide]	0.466 nM	> 10000 nM	> 10000 nM	0.12 nM					
